Reference: patent publication US8816088B2 (Theravance, Inc., priority 2009, dated 2014)
Where a name gives a salt, the structure may show the parent alone.

Tested on: MCh-induced bronchoconstriction
Test: Einthoven assay: bronchoprotection against methacholine (MCh)-induced bronchoconstriction
Assay type: in vivo
Settings: for inhibition in vivo at 0.1 mg: Rattus norvegicus, inhaled or nasal, 24 h, read-out: Broncho. at 24 h, Bronchoprotective effect present at 24 h, 100 μg by inhalation, 24 h after administration
Experimental: This assay measures the ability of a test compound to provide bronchoprotection against methacholine (MCh)-induced bronchoconstriction in a rat. Male Sprague-Dawley rats (Harlan, Indianapolis, Ind.), weighing between 200 g and 350 g, were used for all studies. Test compound or vehicle (sterile deionized water) were dosed by inhalation (1H) over a 10 min period in a pie shaped inhalation chamber (R+S Molds, San Carlos, Calif.) using 5 mL of dosing solution. […] Rats were dosed with 100 μg of test compound unless otherwise indicated. At predetermined time points, rats were anesthetized with an intraperitoneal (IP) injection of 120 mg/kg inactin (thiobutabarbital). A supplemental dose (40 mg/kg, IP) was administered if the animal responded to physical stimuli (e.g. toe pinch). The surgical site was shaved and a 1-2 cm midline incision of the ventral aspect of the neck was made. The jugular vein was isolated and cannulated with a saline-filled polyethylene catheter (PE-50) to allow IV infusion of MCh. Trachea was dissected free and cannulated with a 14G needle (#NE-014, Small Parts, Miami Lakes, Fla.). After placement of the tracheal cannula, each rat was ventilated using a respirator (Model 683, Harvard Apparatus, Inc., MA) set at a stroke volume of 1 mL/100 g body weight (but not exceeding 2.5 mL volume) and a rate of 90 strokes per minute. A T-connector was placed along the respirator expiratory tubing to allow for measurement of changes in ventilation pressure (VP) using a Biopac transducer that was connected to a Biopac […]) pre-amplifier. Body temperature was maintained at 37° C. using a heating pad. Changes in VP were recorded using the Acknowledge Data Collection Software (Santa Barbara, Calif.). Baseline values were collected for at least 2.5 min. Rats were then challenged with non-cumulative intravenous (IV) infusions of 40 and 80 μg/kg MCh. MCh was infused intravenously for 2.5 minutes from a syringe pump (sp210iw, World Precision Instruments, Inc., Sarasota, Fla.) at a rate of 2 mL/kg/min, with a 2 minute interval between the two doses of MCh. Changes in ventilation pressure (cm H2O) in treated animals are expressed as % inhibition of MCh response relative to control animals. Other bronchoconstrictors, such as histamine and acetylcholine, can be used in place of MCh in this assay. Additionally, guinea pigs can be used instead of rats. […] Inhibition greater than or equal to 30 percent at 24 h is indicative of a long duration of action.

SMILES | inhibition in vivo at 0.1 mg [%] | Broncho. at 24 h; Bronchoprotective effect present at 24 h (rat, 100 μg by inhalation, 24 h after administration)
CN(C(=O)CCN1CCC(OC(=O)Nc2ccccc2-c2ccccc2)CC1)c1ccc(CC(=O)NCc2ccc(CCNC[C@H](O)c3ccc(O)c4[nH]c(=O)ccc34)cc2)cc1 [Compound I-64, Biphenyl-2-ylcarbamic acid 1-[2-({4-[(4-{2-[(R)-2-hydroxy-2-(8-hydroxy-2-oxo-1,2-dihydroquinolin-5-yl)-ethylamino]ethyl}benzylcarbamoyl)methyl]phenyl}-methylcarbamoyl)ethyl]piperidin-4-yl ester ditrifluoroacetic acid salt] | < 30 | –
CC(Cc1ccc(CNC(=O)Cc2ccc(N(C)C(=O)CCN3CCC(OC(=O)Nc4ccccc4-c4ccccc4)CC3)cc2)cc1)NC[C@H](O)c1ccc(O)c2[nH]c(=O)ccc12 (stereo partly drawn) [Compound I-66, Biphenyl-2-ylcarbamic acid 1-[2-({4-[(4-{2-[(R)-2-hydroxy-2-(8-hydroxy-2-oxo-1,2-dihydroquinolin-5-yl)-ethylamino]propyl}benzylcarbamoyl)methyl]phenyl}-methylcarbamoyl)ethyl]piperidin-4-yl ester ditrifluoroacetic acid salt] | < 30 | –
C[C@@H](Cc1cccc(CC(=O)NCc2ccc(N(C)C(=O)CCN3CCC(OC(=O)Nc4ccccc4-c4ccccc4)CC3)cc2)c1)NC[C@H](O)c1ccc(O)c2[nH]c(=O)ccc12 [Compound I-79, ditrifluoroacetic acid salt] | < 30 | –
CC(Cc1ccc(CC(=O)NCc2ccc(N(C)C(=O)CCN3CCC(OC(=O)Nc4ccccc4-c4ccccc4)CC3)cc2)cc1)NC[C@H](O)c1ccc(O)c2[nH]c(=O)ccc12 (stereo partly drawn) [Compound I-80, Biphenyl-2-ylcarbamic acid 1-{2-[(4-{[2-(4-{2-[(R)-2-hydroxy-2-(8-hydroxy-2-oxo-1,2-dihydroquinolin-5-yl)-ethylamino]propyl}phenyl)acetylamino]methyl}-phenyl)methylcarbamoyl]ethyl}piperidin-4-yl ester ditrifluoroacetic acid salt] | < 30 | –
CC(Cc1cccc(CCNC(=O)Cc2ccc(N(C)C(=O)CCN3CCC(OC(=O)Nc4ccccc4-c4ccccc4)CC3)cc2)c1)NC[C@H](O)c1ccc(O)c2[nH]c(=O)ccc12 (some centres unmarked) [Compound I-87] | – | Yes (Bronchoprotective effect present at 24 h, e.g., ≧30% inhibition of the MCh response at 24 h in the rat Einthoven assay (100 μg))
